Where two headings read alike, the source gives them in different places.
Columns and labels:
[1] = tested on: P. falciparum schizonts; test: Giemsa stained thin smears after rupture cycle (schizont maturation, PCM); format: cell-based, Plasmodium falciparum; conditions: for schizont maturation / development on giemsa stained thin smears / Protease inhibitor Clusters of Merozoites (PCM) on giemsa stained slides: inhibitor concentrations as in FIG. 6A
Procedure: (§1) Protease inhibitors. Protease inhibitors were tested for their effect on AMA-1 processing. All inhibitors were from Sigma Chemicals. PMSF, pepstatin and TPCK were dissolved in 100% ethanol. Antipain, leupeptin, and 1,10-phenanthroline stocks were made in water. EDTA and EGTA stocks were made in PBS (pH adjusted to 7.2), TLCK was prepared in 1 mM HCl, E64 and chymostatin were prepared in DMSO. All stocks were at 100× concentration. 1.5 μl of the protease inhibitor or its respective solvent control was added to 15 μl PBS and then 135 μl of (1×10^7/ml) Percoll purified mid-stage schizonts were added. The processing assay was carried out as described above. Parallel assay with protease inhibitors was carried out in two similarly prepared plates to which RBC were also added to a final 4% hematocrit. Parasites in the first plate were allowed to invade in suspension at 37° C. and thin smears were prepared after the rupture cycle for giemsa staining and examination for the presence of Protease inhibitor Clusters of Merozoites (PCM) (Lyon and Haynes, 1986, J. Immunol. 136, 2245-2251). In the second plate parasites (135 μl of 5×10^6/ml schizonts+RBC at 4% hematocrit) were incubated overnight and ring forms were quantitated by flow cytometry as a measure of parasite invasion (Haynes et al., 2002, supra).

[2] = tested on: PfAMA-1 processing on merozoites; test: AMA-1 processing assay / processing inhibition assay (PIA), western blot; format: cell-based, P. falciparum clone 3D7; conditions: for accumulation of PfAMA-1 66: FIG. 6A, 6B; for formation of trapped PfAMA-1 52 and PfAMA-1 48+44: with trapping antibodies (1:2500 anti-AMA-1 sera pool)
Procedure: AMA-1 processing assay, or processing inhibition assay (PIA). P. falciparum clone 3D7 cultures were prepared as described previously (Haynes and Moch, 2002, Methods Mol. Med. 72, 489-497), culture media included 10% heat inactivated normal human serum in bicarbonate-containing RPMI 1640 containing final 0.42 mM Ca^+2 and 0.40 mM Mg^+2. Fifteen microliters of heat inactivated rabbit serum (dialyzed against RPMI 1640 or used directly after heat inactivation) or purified IgG or Fab fragments was mixed with 135 μl of synchronized (Haynes and Moch, 2002, supra), Percoll-alanine purified (Kanaani and Ginsburg, 1989, J. Biol. Chem. 264, 3194-3199), mid-stage (˜8 nuclei), >90% pure schizonts (1×10^7 per ml) in a 48 well culture plate. PBS was used as a diluent if necessary. The plate was placed in a plastic bag, gassed with 5% O2-5% CO2, heatsealed, and incubated at 37° C. for ˜6 h (Haynes et al., 2002, Methods Mol. Med. 72, 535-554). Aliquots from a control culture flask were taken to monitor the percent rupture of schizonts by hemocytometer. After ˜90% schizonts had ruptured, the contents of each well were transferred to a microfuge tube and centrifuged at 10,000× g for 5 min. The supernatant was aspirated and the resulting parasite pellet was washed with 0.5 ml chilled PBS and centrifuged as before. The supernatant was discarded and 150 μl of 1× NuPAGE sample buffer (Invitrogen) was added to the tubes, samples were frozen at −30° C. until analyzed. Soluble forms of AMA-1 were immuno-precipitated from the processing assay culture supernatants or from culture supernatant of routinely maintained parasites using MagnaBind Goat anti-Rabbit IgG coated Magnetic Beads (Pierce). Two types of western blots have been used to detect AMA-1 fragments. First set of westerns in FIGS. 1 to 6 have been developed using biotinylated polyclonal IgG against recombinant AMA-1. A second set of western blots, FIG. 6 onwards, has been developed using two biotinylated primary antibodies, mAb 28G2dc1 (1:1000) and polyclonal anti-AMA-1 IgG (1:1000) used simultaneously in order to immunostain all the AMA-1 specific fragments on the blot.
as §1
PAGE and Western blotting. Samples were briefly sonicated with a microtip sonicator, heated at 80° C. for 2 min, spun down and 16 μl was applied per well to a precast 4-12% gradient polyacrylamide gel (NuPAGE Bis-Tris; Invitrogen). Samples were run under non-reduced conditions unless specified. DTT at 50 mM was added to samples resolved under reduced conditions. Proteins from the gel were electrophoretically transferred to nitrocellulose membrane and blocked with 5% BSA in PBS containing 0.05% Tween-20 overnight at 4° C. […]

[3] = tested on: P. falciparum merozoite invasion of RBC; test: microbe, parasite or virus in culture; format: cell-based, Plasmodium falciparum; conditions: for inhibition of RBC invasion: 1 mM
Procedure: as §1

[4] = EDTA, EGTA 1 mM (2-0.25 mM in dose response)

Structure (SMILES) | schizont maturation / development on giemsa stained thin smears [1] | Protease inhibitor Clusters of Merozoites (PCM) on giemsa stained slides [1] | formation of trapped PfAMA-1 52 and PfAMA-1 48+44 [2] | other results
c1cnc2c(c1)ccc1cccnc12 [1,10-phenanthroline] | interrupted schizont maturation | – | – | –
CC(C)C[C@H](NC(=O)[C@H]1O[C@@H]1C(=O)O)C(=O)NCCCCN=C(N)N [E64] | – | PCM's were observed | – | –
O=C(O)CN(CCN(CC(=O)O)CC(=O)O)CC(=O)O [EDTA] | – | – | inhibited the formation of only PfAMA-148+44 | schizont rupture [1]: did not affect schizont rupture; accumulation of PfAMA-1 66 [2, 4]: caused accumulation of PfAMA-166; inhibition of RBC invasion [3]: ~40%
O=C(O)CN(CCOCCOCCN(CC(=O)O)CC(=O)O)CC(=O)O [EGTA] | – | – | inhibited the formation of only PfAMA-148+44 | schizont rupture ([1]; 1 mM): did not affect schizont rupture; accumulation of PfAMA-1 66 [2, 4]: caused accumulation of PfAMA-166; inhibition of RBC invasion [3]: ~20%
O=S(=O)(F)Cc1ccccc1 [PMSF] | interrupted schizont maturation | – | – | –
Cc1ccc(S(=O)(=O)N[C@@H](CCCCN)C(=O)CCl)cc1 [TLCK] | interrupted schizont maturation | – | – | –
Cc1ccc(S(=O)(=O)N[C@@H](Cc2ccccc2)C(=O)CCl)cc1 [TPCK] | interrupted schizont maturation | – | – | –
CC(C)C[C@H](NC(=O)[C@@H](NC(=O)N[C@@H](Cc1ccccc1)C(=O)O)[C@@H]1CCN=C(N)N1)C(=O)N[C@H](C=O)Cc1ccccc1 [chymostatin] | did not block schizont development | PCM's were observed | formation of both PfAMA-152 and PfAMA-148+44 were inhibited | accumulation of PfAMA-1 66 ([2]; chymostatin 100-12.5 μM): found to accumulate; inhibition at 100 µM ([3]; Plasmodium falciparum, read-out: inhibition of merozoite invasion): > 90%
CC(=O)N[C@@H](CC(C)C)C(=O)N[C@@H](CC(C)C)C(=O)N[C@H](C=O)CCCNC(=N)N [leupeptin] | – | PCM's were observed | – | –

— patent US20050009057A1, “Assay for detecting the presence of processing inhibitory antibodies against the Apical Membrane Antigen-1 of Plasmodium falciparum in biological samples” (priority 2003, published 2005)
